Measurements published in patent publication US20250249025A1, “DRUG DELIVERY CARRIER UTILIZING PROPERTY OF D-ALLOSE BEING UPTAKEN BY CANCER CELL, DRUG DELIVERY METHOD, AND COMPOSITION FOR TREATING RENAL CELL CARCINOMA” (NATIONAL UNIVERSITY CORPORATION KAGAWA UNIVERSITY, priority 2019, published 2025).

How the values were obtained:
[1] = tested on: renal cell carcinoma cell line (ACHN); experiment: Cell survival assay (MTT assay), ACHN; type: cell-based, human; conditions: 10 mM, 25 mM and 50 mM in MEM, 24 hours, compared with Control (p<0.05), FIG. 1
Method: (§1) The antitumor effect of rare sugars was analyzed using the three human renal cell carcinoma cell lines (ACHN, Caki-I, and Caki-II) used in Example 1. As the rare sugars, used were the following ten rare sugars: L-allulose, D-allulose, D-allose, L-fructose, D-mannose, L-sorbose, D-tagatose, D-galactose, D-sorbose, and L-tagatose, while as monosaccharides not belonging to rare sugars, D-glucose and D-fructose were used.
(§2) As a medium, a minimum essential medium (MEM) containing 1000 mg/l of D-glucose was used. By adjusting it to contain 10 mM, 25 mM, and 50 mM of each of the monosaccharides or rare sugars and using thus-obtained MEMs [shown by (10), (25), and (50) in the drawing], an antitumor effect of the rare sugars was evaluated.
(§3) A 5.0×10^4 cells/ml of each of cell suspensions was formed using MEM. The resulting suspension (0.1 ml/well) was distributed in a 96-well plate, followed by culturing for 24 hours. […]
(§4) The MTT assay is one of test methods for measuring survival and makes use of a color reaction of an insoluble formazan dye (blue) caused by the reduction of MTT which is a tetrazolium salt. […] The cell viability is determined by measuring this color reaction with a microplate reader.

[2] = tested on: renal cell carcinoma cell line (Caki-I); experiment: Cell survival assay (MTT assay), Caki-I; type: cell-based, human; conditions: 10 mM, 25 mM and 50 mM in MEM, 24 hours, compared with Control (p<0.05), FIG. 2
Method: as §1, §2, §3, §4

[3] = Body weight in renal cell carcinoma xenograft mouse models; type: in vivo, mice; conditions: Control, 100 mg/kg and 400 mg/kg intraperitoneal once a day for 5 weeks; Mann-Whitney U test; FIG. 6
Method: The day when the tumor size of the renal cell carcinoma xenograft mouse models became 200 mm^3 or more was called day 0 and the intraperitoneal injection of a D-allose-containing solution was started from day 1. The solution injected is 0.4 mL of physiological saline or a solution obtained by dissolving 100 mg/kg or 400 mg/kg of D-allose in 0.4 mL physiological saline. The resulting solution was intraperitoneally injected into three groups of mice (Control, 100 mg/kg of D-allose, and 400 mg/kg of D-allose) once a day for 5 weeks in total. The body weight of the mice and the long and short diameters of the tumor were measured over time twice a week. It is to be noted that the tumor volume was obtained as a product of long diameter×short diameter×short diameter of the tumor×0.5. On day 35 after the intraperitoneal injection was started, the tumor as well as the liver and kidney were excised from the mice and provided for the experiment performed thereafter.

[4] = Fundamental safety tests (mutagenicity, biodegradability, oral acute toxicity, skin and eye primary irritation); conditions: conducted by a designated agency at the inventors' request
Source text: With respect to the verification of the safety of D-allose necessary for the use of it as a pharmaceutical ingredient, it was expectable that it was safe because a rare sugar was a monosaccharide present in nature, though its amount was trace. A mutagenicity test, a biodegradability test, and three acute toxicity tests (oral acute toxicity test, skin primary irritation test, and eye primary irritation test) have been determined as the most fundamental safety tests. The present inventors asked a designated agency to conduct the fundamental safety tests of D-allose.

## O=C[C@H](O)[C@H](O)[C@H](O)[C@H](O)CO [D-allose]
[1]
  Viability: significantly reduced the viability
[2]
  Viability: significantly reduced the viability
[3]
  Mice weight, difference among three groups: No significant difference
[4]
  Result of fundamental safety tests: no safety problems
